Reference: patent US12064445B2, “Cytarabine conjugates for cancer therapy” (Biosight Ltd., priority 2015, dated 2024)
Where two headings read alike, the source gives them in different places.

Tests used:
[1] = tested on: A2780 (Human ovarian carcinoma); experiment: MTT assay, IC50 in tumor cell lines; assay type: cell-based; details: A2780, 72 hr
Experimental: (§1) The effect of Astarabine® on different cell lines was evaluated. Briefly, various cell lines were obtained from ATCC or ECACC. Hematological cells were grown in RPMI medium containing 10-20% FBS and 1% glutamine. Solid tumor cells were grown in DMEM medium containing 10-20% FBS and 1% glutamine. Cells were seeded into 96-well plates, 50,000 cells/ml, 0.2 ml per well. Test substances were diluted in saline or PBS and added in final concentrations of 0.1 nM to 10 μM, in a volume of 20 μl. The study was conducted in triplicates, PBS was used as control. Plates were incubated for 72 hr at 37° C., 5% CO2. At the end of the exposure period, a MTT assay using the MTT reagent [3-(4,5-dimethylthiazol-2-yl)-2,5-diphenyltetrazolium bromide] was performed. MTT was added to each well at a concentration of 5 mg/ml in a volume of 0.02 ml. Plates were incubated at 37° C. for 3 h. The plates were centrifuged at 3500 rpm for 5 minutes and the supernatant was aspired. The pellets which contained MTT crystals were each dissolved in 0.2 ml DMSO. Absorbance was determined using ELISA reader at a wavelength of 570 nm.

[2] = tested on: CCRF-CEM (Human acute lymphoblastic leukemia T lympoblastoid line); experiment: MTT assay, IC50 in tumor cell lines; assay type: cell-based; details: 72 hr
Experimental: as §1

[3] = tested on: CCRF-SB (Human acute lymphoblastic leukemia); experiment: MTT assay, IC50 in tumor cell lines; assay type: cell-based; details: 72 hr
Experimental: as §1

[4] = tested on: HL-60 (Human promyelocytic leukemia); experiment: MTT assay, IC50 in tumor cell lines; assay type: cell-based; details: HL-60, 72 hr
Experimental: as §1

[5] = tested on: HepG2 (Human hepatocellular carcinoma); experiment: MTT assay, IC50 in tumor cell lines; assay type: cell-based; details: HepG2, 72 hr
Experimental: as §1

[6] = tested on: K562 (Human chronic myelogenous leukemia); experiment: MTT assay, IC50 in tumor cell lines; assay type: cell-based; details: K562, 72 hr
Experimental: as §1

[7] = tested on: L1210 (Mouse DBA/2 lymphocytic leukemia); experiment: MTT assay, IC50 in tumor cell lines; assay type: cell-based; details: L1210, 72 hr
Experimental: as §1

[8] = tested on: MEG 01 (Human chronic myelogenous leukemia); experiment: MTT assay, IC50 in tumor cell lines; assay type: cell-based; details: MEG 01, 72 hr
Experimental: as §1

[9] = tested on: Molt-4 (Human acute lymphoblastic leukemia); experiment: MTT assay, IC50 in tumor cell lines; assay type: cell-based; details: Molt-4, 72 hr
Experimental: as §1

[10] = tested on: NCIH727 (Human lung non small cell carcinoma); experiment: MTT assay, IC50 in tumor cell lines; assay type: cell-based; details: NCI-H727, NCIH727, 72 hr
Experimental: as §1

[11] = tested on: P388.D1 (Mouse lymphoid macrophage); experiment: MTT assay, IC50 in tumor cell lines; assay type: cell-based; details: P388D1, P388.D1, 72 hr
Experimental: as §1

[12] = tested on: RS 4:11 (Human acute lymphoblastic leukemia); experiment: MTT assay, IC50 in tumor cell lines; assay type: cell-based; details: RS4-11, RS 4:11, 72 hr
Experimental: as §1

[13] = tested on: SU DHL-1 (Human large cell lymphoma); experiment: MTT assay, IC50 in tumor cell lines; assay type: cell-based; details: SU DHL-1, 72 hr
Experimental: as §1

[14] = tested on: SU DHL-5 (Human B-cell non Hodgkin's lymphoma); experiment: MTT assay, IC50 in tumor cell lines; assay type: cell-based; details: SU DHL-5, 72 hr
Experimental: as §1

[15] = tested on: THP-1 (Human monocytic leukemia); experiment: MTT assay, IC50 in tumor cell lines; assay type: cell-based; details: THP-1, 72 hr
Experimental: as §1

RPMI8226 (Human myeloma) = experiment: MTT assay, IC50 in tumor cell lines; assay type: cell-based; details: RPMI-8226, RPMI8226, 72 hr
Experimental: as §1, with “Test substances were diluted in saline or PBS and added in final concentrations of 0.1 nM to 10 μM, in a volume of 20 μl.” left out

Molt-4 cells = experiment: Human leukemia hollow fiber model transplanted in nude mice (Molt-4); assay type: in vivo; details: 1.5 mg/mouse/day, 7 consecutive days
Experimental: (§2) Next, the efficacy of Astarabine® in vivo was studied on a human leukemia (Molt-4 and CCRF-CEM cells) hollow fiber model transplanted in nude mice. Astarabine® was injected at doses of 6.25 mg/mouse/day and 25 mg/mouse/day intraperitoneally (IP), daily, for 7 consecutive days; cytarabine was injected at a dose of 1.5 mg/mouse/day. Leukemia cell growth was measured using the MTT assay as described in Example 1 herein above.

CCRF-CEM cells = experiment: Human leukemia hollow fiber model transplanted in nude mice (CCRF-CEM); assay type: in vivo; details: 1.5 mg/mouse/day, 7 consecutive days
Experimental: as §2

[16] = tested on: Molt-4 (Human acute lymphoblastic leukemia); details: Ogbomo et al., Neoplasia 2008, read-out: Cytarabine in literature (IC50); cited from earlier work
[17] = tested on: HL-60 (Human promyelocytic leukemia); details: Qin et al., Clin. Cancer Res. 2007, read-out: Cytarabine in literature (IC50); cited from earlier work
[18] = tested on: CCRF-SB (Human acute lymphoblastic leukemia); details: Manfredini et al., Bioorg. Med. Chem. 2000, read-out: Cytarabine in literature (IC50); cited from earlier work
[19] = tested on: CCRF-CEM (Human acute lymphoblastic leukemia T lympoblastoid line); details: Manfredini et al., Bioorg. Med. Chem. 2000, read-out: Cytarabine in literature (IC50); cited from earlier work
[20] = tested on: L1210 (Mouse DBA/2 lymphocytic leukemia); details: Breistol et al., Cancer Res. 1999, read-out: Cytarabine in literature (IC50); cited from earlier work
[21] = tested on: HepG2 (Human hepatocellular carcinoma); details: Grove et al., Cancer Res. 1995, read-out: Cytarabine in literature (IC50); cited from earlier work
[22] = tested on: A2780 (Human ovarian carcinoma); details: Ruiz Van Haperen, Cancer Res. 1994, read-out: Cytarabine in literature (IC50); cited from earlier work

## Nc1ccn([C@@H]2O[C@H](CO)[C@@H](O)[C@@H]2O)c(=O)n1 [cytarabine, cytosine arabinoside]
[1]
  IC50: 72 to 114 nM
[2]
  IC50: 3.1 to 25.2 nM
[3]
  IC50: 1900 to 3100 nM
[4]
  IC50: 49.6 to 165 nM
[5]
  IC50: 980 to 1160 nM
[6]
  IC50: 46.1 to 381 nM
[7]
  IC50: 12.2 to 16.4 nM
[8]
  IC50: 1200 to 5600 nM
[9]
  IC50: 1.1 to 12.3 nM
[10]
  IC50: 590 to 770 nM
[11]
  IC50: 600 to 900 nM
[12]
  IC50: 26.4 nM
[13]
  IC50: 124 to 524 nM
[14]
  IC50: 323 nM
[15]
  IC50: 2300 to 5500 nM
RPMI8226 (Human myeloma)
  IC50: 9700 to 63000 nM
Molt-4 cells
  Inhibition of growth of Molt-4 cells: 81.1%
CCRF-CEM cells
  Inhibition of growth of CCRF-CEM cells: 73.3%
[16]
  IC50: 29 ± 1.8 nM
[17]
  IC50: 37 ± 6.1 nM
[18]
  IC50: 4200 nM
[19]
  IC50: 30 nM
[20]
  IC50: 40 ± 9 nM
[21]
  IC50: 185 ± 240 nM
[22]
  IC50: 14 ± 4 nM
